# Assay results published in ChEMBL document CHEMBL1201862, “PubChem BioAssay data set” (2004).
# Active and inactive are the calls of the source.
# Columns and labels:
# Cytochrome P450 2D6 = Cytochrome P450 2D6 (Homo sapiens, UniProt P10635);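 also: CYP2D6 member of a cytochrome P450 panel assay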
# Cytochrome P450 2C9 = Cytochrome P450 2C9 (Homo sapiens, UniProt P11712)
# Streptokinase A = biological target: T1, Streptokinase A (Streptococcus pyogenes serotype M1, UniProt P10520); experiment: S. pyogenes streptokinase expression inhibitors, potency, dose response, plasminogen activation absorbance, OD405 (AID 1914); type: functional, Streptococcus pyogenes M1 GAS;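 also: secreted streptokinase activity via plasminogen activation per viability signal from cell pellet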
# T1 sequence (P10520 whole entry): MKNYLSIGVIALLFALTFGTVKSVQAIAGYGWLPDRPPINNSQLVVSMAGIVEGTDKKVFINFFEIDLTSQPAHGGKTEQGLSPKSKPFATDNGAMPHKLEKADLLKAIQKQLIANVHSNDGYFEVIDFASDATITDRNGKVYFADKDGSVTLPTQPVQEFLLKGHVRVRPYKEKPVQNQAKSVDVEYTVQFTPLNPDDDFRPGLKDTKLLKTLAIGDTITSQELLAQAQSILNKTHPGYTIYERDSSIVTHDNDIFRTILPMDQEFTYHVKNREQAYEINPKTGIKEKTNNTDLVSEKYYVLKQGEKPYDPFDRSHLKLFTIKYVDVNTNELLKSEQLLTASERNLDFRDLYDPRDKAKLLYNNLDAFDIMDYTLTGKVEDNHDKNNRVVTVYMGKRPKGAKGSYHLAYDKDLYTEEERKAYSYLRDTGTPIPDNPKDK
# Streptococcus = experiment: Group A Streptococcus viability loss, dose response, counter-screen for streptokinase expression inhibitor project, luminescence, BacTiterGlo (AID 1915); type: functional, organism-based;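 also: potency for reduction of bacterial viability or growth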
# [1] = system: Streptococcus sp. 'group A'; experiment: growth inhibition of control SK(-) GAS strain, dose response, counter-screen for streptokinase expression inhibitor project, luminescence, kanamycin, BacTiterGlo, confirmation (AID 1900); type: functional, organism-based
# Cytochrome P450 1A2 = biological target: T2, Cytochrome P450 1A2 (Homo sapiens, UniProt P05177);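 also: PubChem cytochrome P450 panel assay, CYP1A2 panel member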
# T2 sequence (P05177 whole entry): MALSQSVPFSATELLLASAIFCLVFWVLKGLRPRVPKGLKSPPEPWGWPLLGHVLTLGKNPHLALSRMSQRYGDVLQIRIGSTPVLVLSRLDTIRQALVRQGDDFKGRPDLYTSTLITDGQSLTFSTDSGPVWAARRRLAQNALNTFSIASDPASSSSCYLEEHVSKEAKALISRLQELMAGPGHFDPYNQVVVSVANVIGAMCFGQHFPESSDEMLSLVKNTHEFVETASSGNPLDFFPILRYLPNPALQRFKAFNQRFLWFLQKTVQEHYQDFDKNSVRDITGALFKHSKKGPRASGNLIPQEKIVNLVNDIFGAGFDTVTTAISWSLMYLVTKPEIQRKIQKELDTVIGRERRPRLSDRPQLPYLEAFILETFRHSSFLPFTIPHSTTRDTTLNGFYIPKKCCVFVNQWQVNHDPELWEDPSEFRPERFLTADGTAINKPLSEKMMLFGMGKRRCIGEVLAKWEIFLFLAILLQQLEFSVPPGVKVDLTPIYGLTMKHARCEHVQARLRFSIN
# [2] = inhibitors of firefly luciferase expression or activity, dose response, H4 neuroglioma cells, luminescence (AID 1990); type: functional, cell-based
# [3] = Luminescence Cell-Based Dose Retest to Confirm Inhibitors of Cancer Stem Cells. [Related pubchem assays (depositor defined):AID2717, AID2721]; type: functional; conditions: Homo sapiens
# [4] = inhibitors of SNCA 5'UTR-driven reporter translation, confirmation, H4 neuroglioma cells, luminescence (AID 1988); type: functional, cell-based
# [5] = Luminescence Cell-Based Dose Response HTS to Identify Inhibitors of 5'UTR Stem-Loop Driven Prion Protein mRNA Translation in H4 Neuroglioblastoma Cells. [Related pubchem assays: 1827 (Project Summary), 1813 (Primary HTS)]; type: functional
# Cytochrome P450 2C19 = Cytochrome P450 2C19 (Homo sapiens, UniProt P33261); experiment: Cytochrome panel assay with activity outcomes. Panel member name: p450-cyp2c19 Compounds with AC50 equal or less than 10 uM are considered active; type: functional; conditions: read-out: AC50
# Chain of Cytochrome P450 2C19 (P33261 whole entry): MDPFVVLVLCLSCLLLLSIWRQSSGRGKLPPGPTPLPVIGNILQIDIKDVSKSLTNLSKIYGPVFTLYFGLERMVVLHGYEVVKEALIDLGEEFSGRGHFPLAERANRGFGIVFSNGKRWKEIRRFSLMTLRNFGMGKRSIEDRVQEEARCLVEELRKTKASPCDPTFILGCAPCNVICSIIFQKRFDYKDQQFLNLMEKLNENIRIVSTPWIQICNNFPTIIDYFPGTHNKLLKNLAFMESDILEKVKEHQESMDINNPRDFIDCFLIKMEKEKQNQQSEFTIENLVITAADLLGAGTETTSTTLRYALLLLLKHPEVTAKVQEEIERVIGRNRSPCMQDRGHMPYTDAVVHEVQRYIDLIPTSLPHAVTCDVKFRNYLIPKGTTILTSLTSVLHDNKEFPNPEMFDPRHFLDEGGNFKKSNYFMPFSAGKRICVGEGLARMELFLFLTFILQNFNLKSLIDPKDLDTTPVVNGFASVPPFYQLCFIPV
# Cytochrome P450 3A4 = Cytochrome P450 3A4 (Homo sapiens, UniProt P08684);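 also: CYP3A4 tested as one member of a cytochrome P450 panel screen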
# Chain of Cytochrome P450 3A4 (P08684 whole entry): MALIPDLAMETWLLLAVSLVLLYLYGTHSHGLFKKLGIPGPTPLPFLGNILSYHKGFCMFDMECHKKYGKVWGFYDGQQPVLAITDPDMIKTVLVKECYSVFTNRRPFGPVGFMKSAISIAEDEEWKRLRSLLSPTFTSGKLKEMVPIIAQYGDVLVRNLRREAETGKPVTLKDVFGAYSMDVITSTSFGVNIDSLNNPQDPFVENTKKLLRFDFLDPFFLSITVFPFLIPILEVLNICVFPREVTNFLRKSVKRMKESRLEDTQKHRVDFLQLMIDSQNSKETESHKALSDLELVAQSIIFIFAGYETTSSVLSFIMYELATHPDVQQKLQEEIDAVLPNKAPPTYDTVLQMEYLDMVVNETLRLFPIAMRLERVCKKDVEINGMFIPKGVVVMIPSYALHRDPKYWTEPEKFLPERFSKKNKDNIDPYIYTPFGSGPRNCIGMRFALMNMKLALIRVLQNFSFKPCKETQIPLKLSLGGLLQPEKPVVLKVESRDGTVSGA
# INS1 = experiment: beta cell apoptosis inhibitors, cytokine rescue, dose response, luminescence, retest (AID 449756); type: functional, cell-based; conditions: Rattus norvegicus;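 also: cell death triggered by IL-1 beta plus TNF-alpha plus IFN-gamma mixture; protective hits raise ATP signal compared with cytokine alone wells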
# [6] = cytotoxicity toward NIH3T3 fibroblasts, dose response, counter-screen, cell-based, ATP luminescence, mouse fibroblasts (AID 2010); type: functional;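 also: cells exposed to compound for about 90 hours before reading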
# [7] = inhibitors of intracellular T. cruzi replication, confirmation, NIH3T3 host cells, beta-gal luminescence (AID 2044); type: functional, cell-based;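 also: intracellular parasites grown in NIH/3T3 mouse fibroblasts as host cells; luminescent beta-galactosidase reporter signal from transgenic T. cruzi replicating inside host cells; inhibitors lower the luminescence signal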
# Chain of Cytochrome P450 2D6 (P10635 whole entry): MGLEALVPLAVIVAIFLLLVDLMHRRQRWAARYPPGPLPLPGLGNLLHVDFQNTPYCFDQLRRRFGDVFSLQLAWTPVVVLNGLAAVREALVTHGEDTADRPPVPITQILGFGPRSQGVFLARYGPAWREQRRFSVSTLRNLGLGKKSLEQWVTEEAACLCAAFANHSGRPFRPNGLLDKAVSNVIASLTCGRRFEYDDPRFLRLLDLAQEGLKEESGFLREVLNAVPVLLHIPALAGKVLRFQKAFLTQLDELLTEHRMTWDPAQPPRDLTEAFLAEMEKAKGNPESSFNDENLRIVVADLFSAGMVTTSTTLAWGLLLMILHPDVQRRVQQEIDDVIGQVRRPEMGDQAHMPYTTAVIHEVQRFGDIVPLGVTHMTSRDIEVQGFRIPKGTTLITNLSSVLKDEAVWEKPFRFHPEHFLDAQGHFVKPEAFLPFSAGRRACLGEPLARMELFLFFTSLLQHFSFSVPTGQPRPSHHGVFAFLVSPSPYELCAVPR
# Chain of Cytochrome P450 2C9 (P11712 whole entry): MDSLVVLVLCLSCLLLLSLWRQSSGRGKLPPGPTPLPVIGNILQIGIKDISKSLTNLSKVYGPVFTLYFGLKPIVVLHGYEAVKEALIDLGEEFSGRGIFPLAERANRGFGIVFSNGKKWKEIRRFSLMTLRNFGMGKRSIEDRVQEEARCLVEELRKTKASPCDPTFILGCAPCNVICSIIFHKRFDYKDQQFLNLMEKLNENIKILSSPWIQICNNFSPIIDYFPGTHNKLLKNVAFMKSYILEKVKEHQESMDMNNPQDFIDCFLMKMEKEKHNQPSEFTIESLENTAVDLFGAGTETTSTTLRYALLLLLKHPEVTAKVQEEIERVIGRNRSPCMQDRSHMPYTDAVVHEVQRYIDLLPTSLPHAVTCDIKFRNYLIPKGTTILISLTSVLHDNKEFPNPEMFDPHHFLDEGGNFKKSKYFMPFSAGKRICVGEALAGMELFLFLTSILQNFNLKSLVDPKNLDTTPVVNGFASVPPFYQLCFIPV
smiles,measurement,setting,value
Oc1c(Cl)cc(CN(Cc2cc(Cl)c(O)c(Cl)c2)C2CCCCC2)cc1Cl,AC50,Cytochrome P450 2D6,5.01 µM (inconclusive)
same,AC50,Cytochrome P450 2C9,3.98 µM (inconclusive)
Nc1c(Cl)cc(-c2csc(N3CCCC3c3nc4cc(Cl)c(Cl)cc4n3CCOCCO)n2)cc1Cl (centres undefined),EC50,Streptokinase A,> 150 µM (not active)
same,EC50,Streptococcus,> 150 µM (not active)
same,EC50,[1],> 150 µM (not active)
C[C@@H](CN1CCC(Cc2ccccc2)CC1)[C@@H](O)c1ccc(O)cc1,AC50,Cytochrome P450 1A2,39.8 µM (inconclusive)
O=c1cc(CNc2cc(C(F)(F)F)cc(C(F)(F)F)c2)nc2sccn12,EC50,[2],17.5 µM (active)
same,AC50,[3],1.99 µM (active)
same,EC50,[4],> 120 µM (not active)
same,EC50,[5],39.2 µM (active)
Cc1ccccc1C(=O)N=c1nc(S)ss1,EC50,Streptokinase A,2.04 µM (active)
same,EC50,Streptococcus,36.5 µM (active)
same,EC50,[1],2.81 µM (active)
O=C(NCCN1CCCC1)C1(S(=O)(=O)c2ccc(Cl)cc2)CC1,AC50,Cytochrome P450 2C19,25.1 µM (inconclusive)
same,AC50,Cytochrome P450 3A4,39.8 µM (inconclusive)
same,AC50,Cytochrome P450 2D6,12.6 µM (inconclusive)
COC(=O)c1ccc(NC(=O)c2cccnc2)cc1,AC50,INS1,5.28 µM (active)
Cc1nnc(NC(=O)c2ccc(S(=O)(=O)N3CC(C)CC(C)C3)cc2)o1 (centres undefined),EC50,Streptokinase A,> 150 µM (not active)
same,EC50,Streptococcus,21 µM (active)
same,EC50,[1],7.28 µM (active)
Cn1cccc1C1C=C(c2ccc(C(C)(C)C)cc2)Nc2ncnn21 (centres undefined),AC50,INS1,3.45 µM (active)
Cc1cc(C(C)(C)C)ccc1OCCCCN1CCCC1,AC50,[3],2.57 µM (active)
O=C(CCC(=O)Nc1ccc(Br)cc1)N/N=C/c1ccccc1O,EC50,Streptokinase A,> 150 µM (not active)
same,EC50,[2],12.6 µM (active)
same,AC50,INS1,3.65 µM (active)
same,EC50,Streptococcus,14.3 µM (active)
same,EC50,[1],5.1 µM (active)
same,EC50,[4],8.55 µM (active)
same,EC50,[5],33.8 µM (active)
Cc1ccc(NC(=O)c2c(C(F)(F)F)nn(C)c2SCc2cccc(C(F)(F)F)c2)cc1C,EC50,[6],> 60 µM (inconclusive)
same,AC50,INS1,5.94 µM (active)
same,EC50,[7],2.52 µM (active)
same,AC50,Cytochrome P450 2D6,14.1 µM (inconclusive)
Cc1ccc(NC(=O)Nc2cccc([N+](=O)[O-])c2)cc1F,EC50,[6],> 60 µM (not active)
same,AC50,INS1,6.65 µM (active)
same,EC50,[7],2.49 µM (active)
CCCN(CCC)CCCNC(=O)c1ccc2c(c1)N(CC)C(=O)c1ccccc1[S+]2[O-] (centres undefined),AC50,Cytochrome P450 1A2,0.01 µM (inconclusive)
same,AC50,Cytochrome P450 2D6,22.4 µM (inconclusive)
CCN(CC)C(=O)CSc1nnc(-c2ccncc2)n1N,AC50,Cytochrome P450 2D6,17.8 µM (inconclusive)
same,AC50,Cytochrome P450 2C9,31.6 µM (inconclusive)
O=C(Nc1cccc(F)c1)N1CC[C@@]2(CCCN(S(=O)(=O)c3ccccc3)C2)C1,AC50,Cytochrome P450 1A2,15.8 µM (inconclusive)
same,AC50,Cytochrome P450 2D6,39.8 µM (inconclusive)
CCCN1CC[C@@H]2c3cc(O)ccc3CC[C@H]21,AC50,Cytochrome P450 2D6,31.6 µM (inconclusive)
CCN(Cc1ccccc1)c1ccc(/C=N/NC(=S)NC(C)C)cc1,AC50,[3],31.1 µM (active)
O=P(c1ccccc1)(c1ccccc1)N1CC2(CC2)CC(O)(c2ccccc2)C1 (centres undefined),AC50,Cytochrome P450 2D6,20 µM (inconclusive)
same,AC50,Cytochrome P450 2C9,39.8 µM (inconclusive)
C=CCC[C@H](Cc1ccc(F)cc1)C(=O)O[C@H](CNC(=O)[C@@H](CC=C)CC(=O)N(CCO)Cc1ccccc1)c1ccccc1,AC50,[3],7.34 µM (active)
CCSc1nnc(C(N)Cc2ccccc2)o1 (centres undefined),AC50,Cytochrome P450 2C19,28.2 µM (inconclusive)
same,AC50,Cytochrome P450 2D6,17.8 µM (inconclusive)
same,AC50,Cytochrome P450 2C9,2.24 µM (inconclusive)
Fc1cc(F)c(C2SCCN2C(=S)Nc2cccc(C(F)(F)F)c2)c(F)c1 (centres undefined),EC50,Streptokinase A,11.1 µM (active)
same,EC50,Streptococcus,> 150 µM (not active)
same,EC50,[1],6.86 µM (active)
CCCOc1c(Cl)cc(C(=O)Nc2ccc3c(c2)OCO3)cc1OCC,AC50,[3],2.39 µM (active)
COc1ccc(NC(=O)N2CCC3(CC2)CCN(S(=O)(=O)c2ccccc2)CC3)cc1,AC50,Cytochrome P450 1A2,31.6 µM (inconclusive)
same,AC50,Cytochrome P450 3A4,20 µM (inconclusive)
same,AC50,Cytochrome P450 2D6,25.1 µM (inconclusive)
NC(=O)OCC(COC(N)=O)c1ccccc1 [FELBAMATE],AC50,Cytochrome P450 1A2,39.8 µM (inconclusive)
COc1ccc2nc(O)c(CN(CCO)C(=O)c3cccs3)cc2c1,AC50,Cytochrome P450 2C19,31.6 µM (inconclusive)
same,AC50,Cytochrome P450 1A2,20 µM (inconclusive)
same,AC50,Cytochrome P450 3A4,15.8 µM (inconclusive)
Cc1cccc(NCCNc2cccc(C)c2)c1,AC50,Cytochrome P450 2D6,12.6 µM (inconclusive)
same,AC50,Cytochrome P450 2C9,17.8 µM (inconclusive)
O=c1[nH]c2cc(Cl)ccc2c(O)c1-c1cccc(Oc2ccccc2)c1,AC50,Cytochrome P450 2C19,31.6 µM (inconclusive)
same,AC50,Cytochrome P450 1A2,2.51 µM (inconclusive)
CN1CCN(c2ncc3nc(-c4ccccc4)c(=O)n(C)c3n2)CC1,AC50,Cytochrome P450 1A2,15.8 µM (inconclusive)
Cc1ccc(O)c(C(=O)c2cc(C#N)c(=O)n(-c3c(C)n(C)n(-c4ccccc4)c3=O)c2)c1,AC50,Cytochrome P450 2D6,10 µM (inconclusive)
CCCC[N+]1(C)[C@@H]2CC(OC(=O)[C@@H](CO)c3ccccc3)C[C@H]1[C@H]1O[C@H]12 (some centres undefined),AC50,Cytochrome P450 2D6,7.94 µM (inconclusive)
c1cnc(N2CCC3(CCNCC3)CC2)nc1,AC50,Cytochrome P450 3A4,20 µM (inconclusive)
same,AC50,Cytochrome P450 2D6,10 µM (inconclusive)
Oc1cc(-c2ccc(N3CCCCC3)nc2)cc2cccnc12,AC50,INS1,3.18 µM (active)
O=C(c1nc2ccc(Cl)cn2c1CN1CCC(CO)CC1)N1CCc2ccccc2C1,EC50,Streptokinase A,> 150 µM (not active)
same,EC50,Streptococcus,> 150 µM (not active)
same,EC50,[1],> 150 µM (not active)
COc1cccc2[nH]c3c(N4CC(C)CC(C)C4)ncnc3c12 (centres undefined),EC50,[6],> 60 µM (not active)
same,EC50,[7],1.39 µM (active)
same,AC50,Cytochrome P450 3A4,0.891 µM (inconclusive)
O=C(O)/C=C\C=C/c1ccc2c(c1)OCO2,AC50,Cytochrome P450 1A2,1.58 µM (inconclusive)
CC(CNC(=O)c1ccc(OC2CCN(Cc3ccccn3)CC2)cc1)Oc1cccnc1 (centres undefined),AC50,INS1,5.59 µM (active)
Cc1nn(Cc2ccc(Cl)cc2Cl)c(C)c1NC(=O)c1sc2ccccc2c1Cl,AC50,Cytochrome P450 2C19,22.4 µM (inconclusive)
same,AC50,Cytochrome P450 1A2,25.1 µM (inconclusive)
same,AC50,Cytochrome P450 2C9,1.78 µM (inconclusive)
COc1ccccc1C1(CC(=O)Nc2nccs2)CCOC(C(C)C)C1 (centres undefined),AC50,Cytochrome P450 1A2,5.62 µM (inconclusive)
same,AC50,Cytochrome P450 2D6,22.4 µM (inconclusive)
COC(=O)C1=C(C)N=C2SC(C)C(=O)N2C1/C=C/c1ccccc1 (centres undefined),AC50,Cytochrome P450 2D6,28.2 µM (inconclusive)
Cc1sc2ncnc(SCC(=O)N3CCCC(C(F)(F)F)C3)c2c1C (centres undefined),EC50,Streptokinase A,> 150 µM (not active)
same,EC50,Streptococcus,> 150 µM (not active)
same,EC50,[1],> 150 µM (not active)
O=C(CC1NCCc2ccccc21)Nc1ccc(Oc2ccccc2)cc1 (centres undefined),AC50,[3],7.35 µM (active)
COc1ccc(/C=C(/C#N)C(=O)Nc2cc(C)ccc2C)cc1C(=O)O,AC50,Cytochrome P450 2D6,25.1 µM (inconclusive)
N#Cc1c(NC(=O)Cn2c(=O)oc3ccccc32)oc(-c2ccccc2)c1-c1ccccc1,AC50,[3],1.97 µM (active)
COc1cccc(C(=O)Nc2nnc(-c3cccs3)o2)c1,EC50,Streptokinase A,> 150 µM (not active)
same,EC50,Streptococcus,18.9 µM (active)
same,EC50,[1],9.25 µM (active)
